Measured values reported in ChEMBL document CHEMBL1201862, “PubChem BioAssay data set” (2004).
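Growth conditions: 96-well plates. Treatment: test compound, 48 hours, 5 concentrations. Analysis: linear interpolation between bracketing concentrations; unreached endpoints set to highest concentration. At the GI50, growth is halved.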 The source made the active and inactive calls. Rule as the data show it: active = GI50 up to about 1.1 µM and inactive = higher.

Experiments:
Assay in all cases: NCI anticancer screen, dose series, 48 h
SNB-19 = tested on: SNB-19
LOX IMVI = tested on: LOX IMVI
NCI-H23 = tested on: NCI-H23
SF-295 = tested on: SF-295
KM12 = tested on: KM12
SW-620 = tested on: SW-620
UACC-62 = tested on: UACC-62
ACHN = tested on: ACHN
SK-MEL-28 = tested on: SK-MEL-28
DLD-1 = tested on: DLD-1
HOP-62 = tested on: HOP-62
NCI-H522 = tested on: NCI-H522
CCRF-CEM = tested on: CCRF-CEM
SNB-75 = tested on: SNB-75
SR = tested on: SR
HCT-116 = tested on: HCT-116
OVCAR-4 = tested on: OVCAR-4
UACC-257 = tested on: UACC-257
SNB-78 = tested on: SNB-78
786-0 = tested on: 786-0
HL-60 = tested on: HL-60
LXFL 529 = tested on: LXFL 529
A549 = tested on: A549
U-251 = tested on: U-251
SK-OV-3 = tested on: SK-OV-3
HT-29 = tested on: HT-29
SK-MEL-2 = tested on: SK-MEL-2
UO-31 = tested on: UO-31
KM-20L2 = tested on: KM-20L2
TK-10 = tested on: TK-10
HCT-15 = tested on: HCT-15
Malme-3M = tested on: Malme-3M
SF-268 = tested on: SF-268
M19-MEL = tested on: M19-MEL
EKVX = tested on: EKVX
RXF 393 = tested on: RXF 393
DMS-273 = tested on: DMS-273
SN12C = tested on: SN12C
K562 = tested on: K562
HCC 2998 = tested on: HCC 2998
XF498 = tested on: XF498
OVCAR-3 = tested on: OVCAR-3
MOLT-4 = tested on: MOLT-4
COLO 205 = tested on: COLO 205
NCI-H226 = tested on: NCI-H226
M14 = tested on: M14
IGROV-1 = tested on: IGROV-1
NCI-H460 = tested on: NCI-H460
SK-MEL-5 = tested on: SK-MEL-5
OVCAR-8 = tested on: OVCAR-8
SF-539 = tested on: SF-539
DMS-114 = tested on: DMS-114
HOP-92 = tested on: HOP-92
CAKI-1 = tested on: CAKI-1
A498 = tested on: A498
RPMI-8226 = tested on: RPMI-8226
OVCAR-5 = tested on: OVCAR-5

In the case of `CCC(C)(C)n1c(C)nc2c1C(=O)c1ccccc1C2=O`, the GI50 (SNB-19) is reported as 53.3 µM (inactive), the GI50 (LOX IMVI) is reported as 19.4 µM (inactive) and the GI50 (NCI-H23) is reported as 27.7 µM (inactive). For the same molecule, the GI50 (SF-295) was 38.9 µM (inactive), the GI50 (KM12) was 23.8 µM (inactive) and the GI50 (SW-620) was 44.7 µM (inactive). For the same molecule, the GI50 (UACC-62) was 13.5 µM (inactive), the GI50 (ACHN) was 32.9 µM (inactive) and the GI50 (SK-MEL-28) was 46.8 µM (inactive). For the same molecule, the GI50 (DLD-1) was 15.6 µM (inactive), the GI50 (HOP-62) was 30.5 µM (inactive) and the GI50 (NCI-H522) was 28.4 µM (inactive). For the same molecule, the GI50 (CCRF-CEM) was 29.7 µM (inactive), the GI50 (SNB-75) was 27.2 µM (inactive) and the GI50 (SR) was 9.33 µM (inactive). The GI50 (HCT-116) was 13.6 µM (inactive), the GI50 (OVCAR-4) was 37.3 µM (inactive) and the GI50 (UACC-257) was 33.5 µM (inactive). For the same molecule, the GI50 (SNB-78) was 46.5 µM (inactive), the GI50 (786-0) was 39.5 µM (inactive) and the GI50 (HL-60) was 7.62 µM (inactive). The GI50 (LXFL 529) was 13.9 µM (inactive), the GI50 (A549) was 36.5 µM (inactive) and the GI50 (U-251) was 28.8 µM (inactive). The GI50 (SK-OV-3) was 44.9 µM (inactive), the GI50 (HT-29) was 31.6 µM (inactive) and the GI50 (SK-MEL-2) was 18.7 µM (inactive). The GI50 (UO-31) was 25.7 µM (inactive), the GI50 (KM-20L2) was 38.6 µM (inactive) and the GI50 (TK-10) was 31.8 µM (inactive). For the same molecule, the GI50 (HCT-15) was 23.1 µM, the GI50 (Malme-3M) was 32.2 µM (inactive) and the GI50 (SF-268) was 29.6 µM (inactive). The GI50 (M19-MEL) was 15.7 µM (inactive), the GI50 (EKVX) was 34.1 µM (inactive) and the GI50 (RXF 393) was 21.1 µM (inactive). The GI50 (DMS-273) was 11.8 µM (inactive), the GI50 (SN12C) was 31.5 µM (inactive) and the GI50 (K562) was 13.6 µM (inactive). For the same molecule, the GI50 (HCC 2998) was 45.8 µM (inactive), the GI50 (XF498) was 16.8 µM (inactive) and the GI50 (OVCAR-3) was 30.7 µM (inactive). For the same molecule, the GI50 (MOLT-4) was 18.8 µM (inactive), the GI50 (COLO 205) was 17 µM (inactive) and the GI50 (NCI-H226) was 40.6 µM (inactive). For the same molecule, the GI50 (M14) was 42.5 µM (inactive), the GI50 (IGROV-1) was 34 µM (inactive) and the GI50 (NCI-H460) was 12.2 µM (inactive). The GI50 (SK-MEL-5) was 15.7 µM (inactive), the GI50 (OVCAR-8) was 36.1 µM (inactive) and the GI50 (SF-539) was 26.5 µM (inactive).

With `CCOC(=O)COc1cccc2occc(=O)c12` the GI50 (SNB-19) was > 100 µM (inactive), the GI50 (LOX IMVI) was > 100 µM (inactive) and the GI50 (NCI-H23) was > 100 µM (inactive). For the same molecule, the GI50 (SF-295) was > 100 µM (inactive), the GI50 (KM12) was > 100 µM (inactive) and the GI50 (SW-620) was > 100 µM (inactive). For the same molecule, the GI50 (UACC-62) was > 100 µM (inactive), the GI50 (ACHN) was > 100 µM (inactive) and the GI50 (SK-MEL-28) was > 100 µM (inactive). For the same molecule, the GI50 (DLD-1) was > 100 µM (inactive), the GI50 (HOP-62) was > 100 µM (inactive) and the GI50 (DMS-114) was > 100 µM (inactive). The GI50 (NCI-H522) was > 100 µM (inactive), the GI50 (CCRF-CEM) was > 100 µM (inactive) and the GI50 (HCT-116) was > 100 µM (inactive). The GI50 (OVCAR-4) was > 100 µM (inactive), the GI50 (UACC-257) was > 100 µM (inactive) and the GI50 (SNB-78) was > 100 µM (inactive). For the same molecule, the GI50 (786-0) was > 100 µM (inactive), the GI50 (HL-60) was > 100 µM (inactive) and the GI50 (LXFL 529) was > 100 µM (inactive). The GI50 (A549) was > 100 µM (inactive), the GI50 (U-251) was > 100 µM (inactive) and the GI50 (SK-OV-3) was > 100 µM (inactive). The GI50 (HT-29) was > 100 µM (inactive), the GI50 (SK-MEL-2) was > 100 µM (inactive) and the GI50 (UO-31) was > 100 µM (inactive). For the same molecule, the GI50 (KM-20L2) was > 100 µM (inactive), the GI50 (TK-10) was > 100 µM (inactive) and the GI50 (HOP-92) was > 100 µM (inactive). The GI50 (HCT-15) was over 100 µM, the GI50 (Malme-3M) was > 100 µM (inactive) and the GI50 (SF-268) was > 100 µM (inactive). For the same molecule, the GI50 (CAKI-1) was > 100 µM (inactive), the GI50 (M19-MEL) was > 100 µM (inactive) and the GI50 (EKVX) was > 100 µM (inactive). For the same molecule, the GI50 (DMS-273) was > 100 µM (inactive), the GI50 (SN12C) was > 100 µM (inactive) and the GI50 (A498) was > 100 µM (inactive). For the same molecule, the GI50 (K562) was > 100 µM (inactive), the GI50 (HCC 2998) was > 100 µM (inactive) and the GI50 (XF498) was > 100 µM (inactive). The GI50 (OVCAR-3) was > 100 µM (inactive), the GI50 (MOLT-4) was > 100 µM (inactive) and the GI50 (COLO 205) was > 100 µM (inactive). For the same molecule, the GI50 (RPMI-8226) was > 100 µM (inactive), the GI50 (M14) was > 100 µM (inactive) and the GI50 (IGROV-1) was > 100 µM (inactive). For the same molecule, the GI50 (NCI-H460) was > 100 µM (inactive), the GI50 (SK-MEL-5) was > 100 µM (inactive) and the GI50 (OVCAR-8) was > 100 µM (inactive). For the same molecule, the GI50 (OVCAR-5) was > 100 µM (inactive) and the GI50 (SF-539) was > 100 µM (inactive).
